Experiments:
[1] = tested on: carbon tetrachloride (CCl4)-induced liver diseases; assay: Pharmacological activity on carbon tetrachloride-induced liver diseases; format: in vivo, SD rats; details: 5mg/kg rat twice, CCl4 1 ml/kg rat; for Total bilirubin: Table 27: CCl4 only 1.2, no administration 0.5; for GPT: Table 27: CCl4 only 818, no administration 16; for GOT: Table 27: CCl4 only 3308, no administration 144
male SPF-ICR mice = assay: in vivo; details: mouse, in vivo
Procedure: (1) Acute toxicity test: • (i) To male SPF-ICR mice of 5 weeks old (supplied by Charles River Co.) were intraperitoneally administered PQQ·2Na and OPQs in the dosages of 20, 40, 80, 160 and 200 mg/kg body weight of mouse, respectively and they were bred at 25°C for 14 days. OPQ, 1-methylpropyl OPQ, 2-methylthioethyl OPQ, and benzyl OPQ were used as the OPQs. One group consisted of 8 mice. […] One group consisted of 8 mice. […] They were bred at 25°C for 14 days. One group consisted of eight mice. […] (2) Toxicity to kidney (i) Toxicity to kidney determined by urine examination: In the same manner as in the acute toxicity test, PQQ·2Na and OPQs were respectively intraperitoneally administered to mice and these mice were bred. Urine was collected every day and concentration of glucose in urine was obtained using Uristex II (manufactured by Miles·Sankyo Co.). […]

[2] = Solubility of the isolated compound, described in words; format: physicochemical; details: for solubility in water / solubility under neutral and alkaline conditions: water
[3] = target: aldose reductase of kidney (Canis lupus familiaris, UniProt A0A8I3P2L6); assay: Inhibitory effect on aldose reductase of kidney; format: biochemical, dog; details: read-out: Degree of inhibition for aldose reductase (%); for inhibition at 1 µM: concentration 1x10^-6 M; for inhibition at 2 µM: concentration 2x10^-6 M; for inhibition at 5 µM: concentration 5x10^-6 M; for inhibition at 0.5 µM: concentration 5x10^-7 M
Procedure: Medulla of kidney of dog was homogenized with 10mM phosphoric acid buffer (pH 7.0) containing 2mM dithiothreitol in an amount of four times the volume of kidney medulla and subjected to centrifugation. The supernatant liquid was purified by affinity chromatography, gel filtration and chromatofocusing to obtain electrophoretically homogeneous aldose reductase. 0.05 ml of 3mM NADPH, 0.1 ml of DL-glyceraldehyde and 0.04 ml of distilled water were added to 0.8 ml of 0.1M phosphoric acid buffer (pH 6.2) and left to stand at 25°C for 3 minutes. Then, 0.01 ml of the aldose reductase solution was added thereto to start reaction and decreasing of absorbance of 340 nm was measured at 25°C with time. Amount of enzyme which consumes 1 µmole of NADPH for 1 minute was taken as 1 unit.

kidney = assay: Toxicity to kidney determined by blood examination; format: in vivo, mice; details: serum; for Creatinine: Table 2, no administration 0.8; for Urea nitrogen: Table 2, no administration 24; for Glucose: Table 2, no administration 78
Procedure: After one day from administration, the mice were fasted (only water was given) and after lapse of 18 hours, blood was collected and serum was obtained therefrom. Glucose, urea nitrogen and creatinine in the serum were examined using FUJI Dry Chemslide (manufactured by Fuji Photo Film Co., Ltd.). […]
Thereafter, the mice were fasted (with giving only water) and after lapse of 18 hours, blood was collected and serum was obtained therefrom. Contents of glucose, urea nitrogen and creatinine in serum were obtained using FUJI Dry Chemslide. The results were shown by average value for eight mice.

[4] = target: T1, aldose reductase of rabbit lens (Oryctolagus cuniculus, UniProt P15122); assay: Inhibitory effect on aldose reductase of lens; format: biochemical; details: read-out: Degree of inhibition for aldose reductase (%)
T1 construct: to obtain electrophoretically homogeneous aldose reductase; from tissue; host or cells: rabbit lens
Procedure: 0.05 ml of 3mM NADPH, 0.1 ml of DL-glyceraldehyde and 0.04 ml of distilled water were added to 0.8 ml of 0.1M phosphoric acid buffer (pH 6.2) and left to stand at 25°C for 3 minutes. Then, 0.01 ml of the aldose reductase solution was added thereto to start reaction and decreasing of absorbance of 340 nm was measured at 25°C with time. Amount of enzyme which consumes 1 µmole of NADPH for 1 minute was taken as 1 unit.
Enzyme activity was measured under the same conditions as in the above measurement of aldose reductase activity except that 0.04 ml of aqueous solution of inhibitory substance in various concentrations was added in place of 0.04 ml of distilled water and degree of inhibition was calculated from comparison of the enzyme activity with the enzyme activity obtained in the absence of inhibitor. (1) OPQ, (2) methyl OPQ, (3) 1-methylpropyl OPQ, (4) 2-methylpropyl OPQ, (5) 2-carbamoylethyl OPQ, (6) hydroxymethyl OPQ, (7) 2-methylthioethyl OPQ, (8) 2-carboxyethyl OPQ, (9) 4-hydroxybenzyl OPQ, (10) 1-methylethyl OPQ, and (11) benzyl OPQ were used as inhibition substances and (12) PQQ was used as control.
Lens of rabbit was homogenized with 10mM phosphoric acid buffer (pH 7.0) containing 2mM dithiothreitol in an amount of two times the volume of the lens and subjected to centrifugation. The supernatant liquid was purified by affinity chromatography, gel filtration and chromatofocusing to obtain electrophoretically homogeneous aldose reductase. Using (1) OPQ, (2) 1-methylpropyl OPQ, (3) 2-methylpropyl OPQ, (4) hydroxymethyl OPQ, and (5) 1-methylethyl OPQ as inhibition substances, degree of inhibition of these substances for aldose reductase of rabbit lens was examined in the same manner in Example 32.

[5] = 40 mg/kg mouse intraperitoneally
[6] = 80 mg/kg mouse intraperitoneally
[7] = 160 mg/kg mouse intraperitoneally
[8] = 200 mg/kg mouse intraperitoneally

Row | SMILES | Total bilirubin [1] [mg/dL] | GPT [1] [U/l] | GOT [1] [U/l] | death of mice (male SPF-ICR mice) | solubility in acetone and diethyl ether [2] | solubility in lower alcohols [2] | solubility in water [2] | solubility under neutral and alkaline conditions [2] | Creatinine (kidney; [5]) [mg/dL] | Urea nitrogen (kidney; [5]) [mg/dL] | Glucose (kidney; [5]) [mg/dL] | Creatinine (kidney; [6]) [mg/dL] | Urea nitrogen (kidney; [6]) [mg/dL] | Glucose (kidney; [6]) [mg/dL] | Creatinine (kidney; [7]) [mg/dL] | Urea nitrogen (kidney; [7]) [mg/dL] | Glucose (kidney; [7]) [mg/dL] | Creatinine (kidney; [8]) [mg/dL] | Urea nitrogen (kidney; [8]) [mg/dL] | Glucose (kidney; [8]) [mg/dL] | other results
1 | O=C(O)c1cc(C(=O)O)c2c(n1)c1nc(Cc3ccccc3)oc1c1cc(C(=O)O)[nH]c12 [Benzyl OPQ, 5-Benzyl-2,8,10-tricarboxy-1H-oxazo[5,4-h]-pyrrolo-[2,3-f]-quinoline] | 0.7 | 233 | 993 | no mice died | did not dissolve | dissolved | easily soluble | especially soluble | 0.7 | 23 | 90 | 0.7 | 23 | 87 | 0.7 | 26 | 87 | 0.7 | 25 | 84 | inhibition at 1 µM [3]: 35.7%; inhibition at 2 µM [3]: 46.4%; inhibition at 5 µM [3]: 63.3%
2 | CCC(C)c1nc2c3nc(C(=O)O)cc(C(=O)O)c3c3[nH]c(C(=O)O)cc3c2o1 (stereo not drawn) [1-Methylpropyl OPQ, 5-(1-Methylpropyl)-2,8,10-tricarboxy-1H-oxazo[5,4-h]-pyrrolo[2,3-f]quinoline] | 0.7 | 182 | 887 | no mice died | did not dissolve | dissolved | easily soluble | very easily soluble | 0.8 | 26 | 87 | 0.8 | 22 | 104 | 0.8 | 27 | 87 | 0.8 | 27 | 66 | inhibition at 1 µM ([4]; concentration 1x10^-6 M): 64.7%; inhibition at 0.1 µM ([4]; concentration 1x10^-7 M): 24%; inhibition at 0.2 µM ([4]; concentration 2x10^-7 M): 36.4%; inhibition at 0.5 µM ([4]; concentration 5x10^-7 M): 50.8%; inhibition at 0.1 µM ([3]; concentration 1x10^-7 M): 32.6%; inhibition at 0.2 µM ([3]; concentration 2x10^-7 M): 45.9%; inhibition at 0.5 µM [3]: 61.7%
3 | CSCCc1nc2c3nc(C(=O)O)cc(C(=O)O)c3c3[nH]c(C(=O)O)cc3c2o1 [2-Methylthioethyl OPQ, 5-(2-Methylthioethyl)-2,8,10-tricarboxy-1H-oxazo-[5,4-h]-pyrrolo[2,3-f]quinoline] | 0.7 | 157 | 693 | no mice died | did not dissolve | dissolved | easily soluble | especially soluble | 0.8 | 26 | 96 | 0.7 | 26 | 88 | 0.6 | 26 | 97 | 0.7 | 26 | 72 | inhibition at 10 µM ([3]; concentration 1x10^-5 M): 83%; inhibition at 1 µM [3]: 42%; inhibition at 2 µM [3]: 54.9%; inhibition at 5 µM [3]: 81.8%; inhibition at 0.5 µM [3]: 24.3%

Source: patent publication EP0429333B1, “Process for producing oxazopyrroloquinolines, novel oxazopyrroloquinolines, and use of oxazopyrroloquinolines” (priority 1989, dated 1991)
